Test results reported in ChEMBL document CHEMBL1955725, “Structure-guided lead optimization of triazolopyrimidine-ring substituents identifies potent Plasmodium falciparum dihydroorotate dehydrogenase inhibitors with clinical candidate potential” (J Med Chem, 2011).
≈ marks a conversion by molar mass, not a printed value.

What was measured:
[1] = tested on: Plasmodium falciparum; experiment: Antimalarial activity against chloroquine-resistant Plasmodium falciparum Dd2 by [3H]hypoxanthine incorporation assay in presence of human serum; type: functional, organism-based
[2] = tested on: Mus musculus; experiment: AUC (0 to 24 hrs) in human RBC engrafted NOD-SCID IL-2Rgamma-null mouse at 7 mg/kg, po; type: ADME, organism-based, Plasma; parameters: time < 24 hr, dose 7 mg/kg, route oral; details: in vivo
[3] = tested on: L1210; experiment: Cytotoxicity against mouse L1210 cells; type: cell-based
[4] = Aqueous solubility of the compound at pH 6.5; type: physicochemical
[5] = tested on: Plasmodium falciparum; experiment: Antimalarial activity against Plasmodium falciparum D10 transfected with yeast DHODH by [3H]hypoxanthine incorporation assay; type: functional, organism-based
[6] = Terminal elimination half life in Swiss outbred mouse at 50 mg/kg, po; type: ADME, organism-based; parameters: dose 50 mg/kg, route oral; details: in vivo, read-out: beta t1/2 (converted)
[7] = Cmax in Sprague-Dawley rat at 2.1 mg/kg, po; type: ADME, organism-based; parameters: dose 2.1 mg/kg, route oral; details: in vivo
[8] = tested on: Plasmodium falciparum; experiment: Antimalarial activity against chloroquine and pyrimethamine-resistant Plasmodium falciparum K1 by [3H]hypoxanthine incorporation assay in presence of human serum; type: functional, organism-based
[9] = Cmax in Sprague-Dawley rat at 18.8 mg/kg, po; type: ADME, organism-based; parameters: dose 18.8 mg/kg, route oral; details: in vivo
[10] = tested on: Plasma; experiment: Plasma protein binding in human by chromatographic method; type: ADME, cell-free
[11] = in vivo; details: Swiss outbred, mouse, po, 2 mg/kg
[12] = in vivo; details: NOD-SCID IL-2Rgamma-null, mouse, po, 7 mg/kg
[13] = Terminal elimination half life in Swiss outbred mouse at 0.4 mg/kg, po; type: ADME, organism-based; parameters: dose 0.4 mg/kg, route oral; details: in vivo, read-out: beta t1/2 (converted)
[14] = tested on: HepG2; experiment: Cytotoxicity against human HepG2 cells; type: cell-based
[15] = AUC (0 to infinity) in Sprague-Dawley rat at 2.1 mg/kg, po; type: ADME, organism-based; parameters: time infinity, dose 2.1 mg/kg, route oral; details: plasma
[16] = in vivo; details: Sprague-Dawley, rat, po, 2.1 mg/kg
[17] = Oral bioavailability in Sprague-Dawley rat at 18.8 mg/kg; type: ADME, organism-based; details: in vivo
[18] = Cmax in Swiss outbred mouse at 0.4 mg/kg, po; type: ADME, organism-based; parameters: dose 0.4 mg/kg, route oral; details: in vivo
[19] = Cmax in Swiss outbred mouse at 50 mg/kg, po; type: ADME, organism-based; parameters: dose 50 mg/kg, route oral; details: in vivo
[20] = Terminal elimination half life in Sprague-Dawley rat at 18.8 mg/kg, po; type: ADME, organism-based; parameters: dose 18.8 mg/kg, route oral; details: in vivo, read-out: beta t1/2 (converted)
[21] = in vivo; details: Swiss outbred, mouse, po, 50 mg/kg
[22] = tested on: Plasmodium falciparum; experiment: Antimalarial activity against drug-sensitive Plasmodium falciparum HB3 by [3H]hypoxanthine incorporation assay in presence of human serum; type: functional, organism-based
[23] = in vivo; details: Swiss outbred, mouse, po, 10 mg/kg
[24] = Cmax in Sprague-Dawley rat at 46.7 mg/kg, po; type: ADME, organism-based; parameters: dose 46.7 mg/kg, route oral; details: in vivo
[25] = tested on: Plasmodium falciparum; experiment: Antimalarial activity against Plasmodium falciparum 3D7 by [3H]hypoxanthine incorporation assay in presence of human serum; type: functional, organism-based
[26] = AUC (0 to infinity) in Sprague-Dawley rat at 18.8 mg/kg, po; type: ADME, organism-based; parameters: time infinity, dose 18.8 mg/kg, route oral; details: plasma
[27] = tested on: Plasmodium falciparum; experiment: Antimalarial activity against atovoquone-resistant Plasmodium falciparum TM90C2B by [3H]hypoxanthine incorporation assay in presence of human serum; type: functional, organism-based
[28] = Oral bioavailability in Sprague-Dawley rat at 46.7 mg/kg; type: ADME, organism-based; details: in vivo
[29] = in vivo; details: Sprague-Dawley, rat, po, 18.8 mg/kg
[30] = AUC (0 to infinity) in Sprague-Dawley rat at 46.7 mg/kg, po; type: ADME, organism-based; parameters: time infinity, dose 46.7 mg/kg, route oral; details: plasma
[31] = Terminal elimination half life in Sprague-Dawley rat at 0.9 mg/kg, iv; type: ADME, organism-based; parameters: dose 0.9 mg/kg, route intravenous; details: in vivo, read-out: beta t1/2 (converted)
[32] = Volume of distribution in Sprague-Dawley rat at 2.6 mg/kg, iv; type: ADME, organism-based; parameters: dose 2.6 mg/kg, route intravenous; details: in vivo
[33] = Clearance in Sprague-Dawley rat at 2.6 mg/kg, iv; type: ADME, organism-based; parameters: dose 2.6 mg/kg, route intravenous; details: in vivo
[34] = AUC (0 to infinity) in Swiss outbred mouse plasma at 50 mg/kg, po; type: ADME, organism-based; parameters: time infinity, dose 50 mg/kg, route oral
[35] = Cmax in human RBC engrafted NOD-SCID IL-2Rgamma-null mouse at 7 mg/kg, po; type: ADME, organism-based; parameters: dose 7 mg/kg, route oral; details: in vivo
[36] = Oral bioavailability in Sprague-Dawley rat at 2.1 mg/kg; type: ADME, organism-based; details: in vivo
[37] = AUC (0 to infinity) in Swiss outbred mouse plasma at 0.4 mg/kg, po; type: ADME, organism-based; parameters: time infinity, dose 0.4 mg/kg, route oral
[38] = in vivo; details: Swiss outbred, mouse, po, 0.4 mg/kg
[39] = Cmax in Swiss outbred mouse at 2 mg/kg, po; type: ADME, organism-based; parameters: dose 2 mg/kg, route oral; details: in vivo
[40] = tested on: Liver microsomes; experiment: Intrinsic clearance in human liver microsomes; type: ADME, Microsome
[41] = Terminal elimination half life in Swiss outbred mouse at 10 mg/kg, po; type: ADME, organism-based; parameters: dose 10 mg/kg, route oral; details: in vivo, read-out: beta t1/2 (converted)
[42] = tested on: Plasmodium falciparum; experiment: Antimalarial activity against Plasmodium falciparum 3D7 by [3H]hypoxanthine incorporation assay in presence of albumax; type: functional, organism-based
[43] = Terminal elimination half life in Sprague-Dawley rat at 2.1 mg/kg, po; type: ADME, organism-based; parameters: dose 2.1 mg/kg, route oral; details: in vivo, read-out: beta t1/2 (converted)
[44] = tested on: Plasmodium falciparum; experiment: Antimalarial activity against drug-sensitive Plasmodium falciparum D6 by [3H]hypoxanthine incorporation assay in presence of human serum; type: functional, organism-based
[45] = AUC (0 to infinity) in Swiss outbred mouse plasma at 10 mg/kg, po; type: ADME, organism-based; parameters: time infinity, dose 10 mg/kg, route oral
[46] = AUC (0 to infinity) in Swiss outbred mouse plasma at 2 mg/kg, po; type: ADME, organism-based; parameters: time infinity, dose 2 mg/kg, route oral
[47] = Terminal elimination half life in Sprague-Dawley rat at 46.7 mg/kg, po; type: ADME, organism-based; parameters: dose 46.7 mg/kg, route oral; details: in vivo, read-out: beta t1/2 (converted)
[48] = Cmax in Swiss outbred mouse at 10 mg/kg, po; type: ADME, organism-based; parameters: dose 10 mg/kg, route oral; details: in vivo
[49] = Plasma protein binding in Swiss outbred mouse by ultracentrifugation; details: read-out: PPB (converted)
[50] = Plasma protein binding in Sprague-Dawley rat at 2.1 to 46.7 mg/kg, po; type: ADME, organism-based; parameters: dose 2.1-46.7 mg/kg, route oral; details: read-out: PPB (converted)
[51] = in vivo; details: Sprague-Dawley, rat, po, 46.7 mg/kg
[52] = Terminal elimination half life in Swiss outbred mouse at 2 mg/kg, po; type: ADME, organism-based; parameters: dose 2 mg/kg, route oral; details: in vivo, read-out: beta t1/2 (converted)
[53] = tested on: Mus musculus; experiment: Time plasma concentration remained above 1 uM in Swiss outbred mouse plasma at 2 mg/kg, po; type: ADME, organism-based; parameters: dose 2 mg/kg, route oral; details: in vivo
[54] = tested on: Plasmodium falciparum; experiment: Antimalarial activity against Plasmodium falciparum D10 by [3H]hypoxanthine incorporation assay; type: functional, organism-based
[55] = Terminal elimination half life in Sprague-Dawley rat at 2.6 mg/kg, iv; type: ADME, organism-based; parameters: dose 2.6 mg/kg, route intravenous; details: in vivo, read-out: beta t1/2 (converted)
[56] = tested on: Mus musculus; experiment: Time plasma concentration remained above 1 uM in Swiss outbred mouse plasma at 0.4 mg/kg, po; type: ADME, organism-based; parameters: dose 0.4 mg/kg, route oral; details: in vivo
[57] = Cmax in human RBC engrafted NOD-SCID IL-2Rgamma-null mouse infected with Plasmodium falciparum 3D7 0087/N9 at 7 mg/kg, po; type: ADME, organism-based; parameters: dose 7 mg/kg, route oral; details: in vivo
[58] = Volume of distribution in Sprague-Dawley rat at 0.9 mg/kg, iv; type: ADME, organism-based; parameters: dose 0.9 mg/kg, route intravenous; details: in vivo
[59] = in vivo; details: NOD-SCID IL-2Rgamma-null, mouse, po, 7 mg/kg; remark: listed apart in the source
[60] = tested on: Plasmodium falciparum; experiment: Antimalarial activity against […] Plasmodium falciparum TM90C2A by [3H]hypoxanthine incorporation assay in presence of human serum; type: functional, organism-based
[61] = tested on: Mus musculus; experiment: Time plasma concentration remained above 1 uM in Swiss outbred mouse plasma at 10 mg/kg, po; type: ADME, organism-based; parameters: dose 10 mg/kg, route oral; details: in vivo
[62] = tested on: Plasmodium falciparum; experiment: Antimalarial activity against Plasmodium falciparum 3D7 0087/N9 infected in human RBC engrafted NOD-SCID IL-2Rgamma-null mouse assessed as reduction in parasitemia administered orally 3 days post infection qd for 4 days measured 24 hrs after final dose by FACS analysis; type: functional; details: 3D7 0087/N9, po

Cc1cc(Nc2ccc(S(F)(F)(F)(F)F)cc2)n2nc(C(C)(F)F)nc2n1 [DSM-265]
EC50 [1]: 57 nM
AUC [2]: 3469 µM·min
EC50 [3]: > 50000 nM
solubility [4]: 30 µM (≈ 12.5 µg/mL)
EC50 [5]: > 20000 nM
half-life [6]: 3.2 h
Cmax [7]: 0.75 µM
EC50 [8]: 57 nM
Cmax [9]: 3.9 µM
PPB [10]: 97.4%
Tmax [11]: 1 h
Tmax [12]: 4 h
half-life [13]: 4.1 h
EC50 [14]: > 50000 nM
AUC(0-inf) [15]: 15.5 µM·h
Tmax [16]: 3.25 h
bioavailability [17]: 57%
Cmax [18]: 0.06 µM
Cmax [19]: 9.53 µM
half-life [20]: 15.5 h
Tmax [21]: 2 h
EC50 [22]: 27 nM
Tmax [23]: 1.5 h
Cmax [24]: 6.4 µM
EC50 [25]: 46 nM
AUC(0-inf) [26]: 122 µM·h
EC50 [27]: 15 nM
bioavailability [28]: 61%
Tmax [29]: 7 h
AUC(0-inf) [30]: 322 µM·h
half-life [31]: 10.1 h
Vd [32]: 5.9 L/kg
clearance [33]: 6 mL/min/kg
AUC(0-inf) [34]: 33.8 µM·h
Cmax [35]: 6.1 µM
bioavailability [36]: 66%
AUC(0-inf) [37]: 0.45 µM·h
Tmax [38]: 0.5 h
Cmax [39]: 0.44 µM
Intrinsic clearance [40]: < 5 µL/min/mg
half-life [41]: 2.5 h
EC50 [42]: 7.8 nM
half-life [43]: 11.6 h
EC50 [44]: 22 nM
AUC(0-inf) [45]: 22.6 µM·h
AUC(0-inf) [46]: 2.72 µM·h
half-life [47]: 27.9 h
Cmax [48]: 3.1 µM
fraction unbound [49]: 0.004
fraction unbound [50]: 0.027
Tmax [51]: 17 h
half-life [52]: 3.5 h
Time [53]: 0 h
EC50 [54]: 86 nM
half-life [55]: 12.6 h
Time [56]: 0 h
Cmax [57]: 5.3 µM
Vd [58]: 2.9 L/kg
Tmax [59]: 6.7 h
EC50 [60]: 31 nM
Time [61]: 8 h
ED50 [62]: 2.8 mg/kg
ED90 [62]: 8.1 mg/kg
